{"source": "patent US20140371244A1", "about": "“METHOD FOR TREATING PROSTATE CANCER BY USE OF PHARMACEUTICAL COMPOSITION CONTAINING A3 ADENOSINE RECEPTOR AGONIST” (priority 2009, published 2014)", "key": {"iNOS": {"system": "iNOS", "assay": "Expression of iNOS protein and gene (Western blot, RT-PCR) in LPS-stimulated RAW 264.7 cells", "assay_type": "cell-based, mouse", "protocol": "The effects of the inventive composition on the expression of iNOS protein and mRNA were examined by Western blot analysis and RT-PCR. Specifically, RAW 264.7 cells were diluted with 10% FBS-containing medium to a density of 1×10^6 cells per 100 mm culture dish and cultured under the conditions of 37° C. and 5% CO2 for 24 hours, followed by washing twice with PBS. The cells were pretreated with each of 20 μM (the highest concentration showing no cytotoxicity), 10 μM and 5 μM of thio-Cl-IB-MECA in 10% FBS-containing medium, and inflammatory reactions in the cells were induced by LPS (1 μg/ml), followed by culture for 18 hours. […] The cells were thawed at 37° C. immediately before use and used in protein quantification and electrophoresis.\nProtein quantification was performed using the BCA method, and […] of the protein was electrophoresed on 8-12% SDS-polyacrylamide gel at 150 V for 110 minutes. […] The membrane was washed 2-3 times with PBST for 5 minutes each time, after which HRP-conjugated secondary antibody was diluted at a ratio of 1:1,500-1:2,000 and incubated with the membrane at room temperature for 2-3 hours. the membrane was washed three times with PBST for 5 minutes each time and treated with a Western blot substrate (WESTSAVE Up™), and the produced luminescence was examined using LAS-3000. […]"}, "[1]": {"system": "Wnt signaling-related proteins", "assay": "PI-3 kinase / Wnt signaling proteins and β-catenin expression in LPS-stimulated RAW 264.7 cells", "assay_type": "cell-based, mouse", "protocol": "A test was carried out to examine the effects of the inventive composition on the expressions of PI-3 kinase (which influences the NF-κB signaling pathway) and Wnt signaling-related proteins in RAW 264.7 cells. Specifically, RAW 264.7 cells were treated with the inventive composition (20 μM thio-Cl-IB-MECA), and after 30 minutes, were stimulated by LPS. At intervals of 5, 15, 30 and 60 minutes after culture, proteins were extracted from all the cells, and the effects of the inventive composition on the expressions of the proteins were measured in comparison with those in the control group treated with only LPS.\nIn order to examine the intranuclear movement of β-catenin and the accumulation of β-catenin in the cytoplasm, RAW 264.7 cells were treated with each of 5, 10 and 20 μM of the inventive composition (thio-Cl-IB-MECA), and after 30 minutes, the cells were stimulated by LPS. After 1 hour of culture, the cells were collected and separated into a nuclear extract and a cytosol extract. The expressions of β-catenin protein in the cytosol and nuclear portions were analyzed by Western blot, and the results of the analysis are shown in FIG. 7b. […] When no LPS stimulation is applied, β-catenin is degraded by phosphorylation."}, "PC-3 cells": {"system": "PC-3 cells", "assay": "Western blot of cell cycle regulation-related proteins and Wnt signaling in PC-3 cells", "assay_type": "cell-based, human", "protocol": "A test was carried out to examine whether the inhibitory effects of thio-Cl-IB-MECA on the proliferation of LNCaP cells and PC-3 cells are attributable to regulation of the Wnt signaling pathway.\nSpecifically, each type of LNCaP cells and PC-3 cells was diluted with 10% FBS-containing medium to a density of 1.0×10^6 cells per 100 mm culture dish and cultured under the conditions of 37° C. and 5% CO2 for 24 hours, followed by washing twice with PBS. Thio-Cl-IB-MECA was diluted in 10% FBS-containing medium at required concentration, and then 10 ml of the culture medium prepared in the 100 mm culture dish was added thereto and cultured for a given period. The non-adherent cells and adherent cells in the cell medium were collected and washed twice with PBS, after which the cells were suspended in boiling cell lysis buffer and heated at 100° C. for 5 minutes. The cells were cooled and then stored at […], and the stored cells were thawed at 37° C. immediately before use in protein quantification and electrophoresis. Protein quantification was performed using the BCA method, and […] of protein was electrophoresed on 8-12% SDS-polyacrylamide gel at 150 V for 110 minutes. The gel at the desired site was cut and transferred to a PVDF (polyvinylidene fluoride) for 1 hour, and after which it was washed twice with PBST and stirred in blocking buffer at room temperature for 1 hour. Then, the membrane was washed three times with PBST for 5 minutes each time, after which primary antibody was diluted at a ratio of 1:1,000-1:2,000 with 3% skimmed milk/PBST, and it was sealed together with the membrane and incubated with stirring at 4° C. for 12 hours or more. The membrane was washed 2-3 times with PBST for 5 minutes each time, after which HRP-conjugated secondary antibody was diluted at a ratio of 1:1,500-1:2,000 and incubated with the membrane at room temperature for 2-3 hours. The membrane was washed three times with PBST for 5 minutes each time and treated with a Western blot substrate (WESTSAVE Up™), and the produced luminescence was examined using LAS-3000."}, "[2]": {"details": "20 μM, LPS stimulation, 5, 15, 30, 60 min"}}, "data": [{"smiles": "CNC(=O)[C@H]1S[C@@H](n2cnc3c(NCc4cccc(I)c4)nc(Cl)nc32)[C@H](O)[C@@H]1O", "note": "[thio-Cl-IB-MECA, 2-chloro-N^6-(3-iodobenzyl)-4′-thioadenosine-5′-N-methyluronamide]", "values": [{"measurement": "expression of iNOS gene", "setting": "iNOS; RT-PCR, 5, 10 or 20 μM, vs LPS control", "result": "inhibited the expression of iNOS gene in a concentration-dependent manner"}, {"measurement": "expression of iNOS protein", "setting": "iNOS; Western blot, 5, 10, 20 μM, LPS 1 μg/ml, 18 hours", "result": "inhibited the expression of iNOS protein in a concentration-dependent manner"}, {"measurement": "expression of p-AKT", "setting": "[1]; [2]", "result": "also inhibited at 30 min and 60 min"}, {"measurement": "expression of p-GSK 3α/β", "setting": "[1]; [2]", "result": "inhibited at 30 min and 60 min"}, {"measurement": "expression of p-β-catenin", "setting": "[1]; 5, 10 and 20 μM, LPS, 1 hour", "result": "concentration-dependently inhibited"}, {"measurement": "expressions of β-catenin in the cytosol and nuclear portions", "setting": "[1]; 5, 10 and 20 μM, LPS, 1 hour", "result": "concentration-dependently inhibited"}, {"measurement": "Wnt signaling pathway, PC-3", "setting": "PC-3 cells", "result": "inhibited the Wnt signaling pathway"}, {"measurement": "expression and RB phosphorylation of cyclin D, cyclin A, CDK4, c-myc and PCNA, PC-3", "setting": "PC-3 cells", "result": "inhibited the expression and RB phosphorylation"}, {"measurement": "expression of p53 and p27, PC-3", "setting": "PC-3 cells", "result": "increased the expression"}]}]}
